Measurements taken from patent publication US20260035387A1 (BIOGEN MA INC., priority 2022, published 2026).

System: mutant Huntington (HTT) protein
Assay: HTT Mutant HTRF iPSC assay (mHTT protein lowering)
Assay type: cell-based
Conditions: human iPSC derived from a HTT patient with a poly-Q49 mutation

SMILES | IC50
CCN1CCN(c2cnc3cc(C(=O)Nc4cc5cn(C)nc5cc4OC)sc3n2)CC1 [Compound 247, 3-(4-ethylpiperazin-1-yl)-N-(6-methoxy-2-methyl-2H-indazol-5-yl)thieno[2,3-b]pyrazine-6-carboxamide] | < 100 nM
Cc1cn2cc(NC(=O)c3cc4ccc(Nc5ccc6c(c5)N(C)CCN(C)C6)nc4s3)ccc2n1 [Compound 47, 6-((1,4-dimethyl-2,3,4,5-tetrahydro-1H-benzo[e][1,4]diazepin-8-yl)amino)-N-(2-methylimidazo[1,2-a]pyridin-6-yl)thieno[2,3-b]pyridine-2-carboxamide] | 1000 to 9000 nM
Cc1cn2cc(NC(=O)c3cc4ccc(N5CCC6NCC65)nc4s3)cc(F)c2n1 (stereo not drawn) [Compound 200, 6-(2,6-diazabicyclo[3.2.0]heptan-2-yl)-N-(8-fluoro-2-methylimidazo[1,2-a]pyridin-6-yl)thieno[2,3-b]pyridine-2-carboxamide] | < 100 nM
COc1cc2nn(C)cc2cc1NC(=O)c1cc2ccc(N[C@@H]3CC(C)(C)NC(C)(C)[C@@H]3F)nc2s1 (racemic) [Compound 260, 6-(((3R,4R)-3-fluoro-2,2,6,6-tetramethylpiperidin-4-yl)amino)-N-(6-methoxy-2-methyl-2H-indazol-5-yl)thieno[2,3-b]pyridine-2-carboxamide] | < 100 nM
COc1cc2nn(C)cc2cc1NC(=O)c1cc2ccc(N3CCC(N(C)C)C3)nc2s1 (single isomer, unassigned) [Compound 244] | < 100 nM
Cc1cn2cc(NC(=O)c3cc4ccc([C@@H]5CCCNC5)nc4s3)cc(F)c2n1 (single isomer, unassigned) [Compound 82] | < 100 nM
COc1cn2nc(C)cc2cc1NC(=O)c1cc2nc(N3C[C@@H]4CN(C)C[C@@H]43)ccc2o1 [Compound 171, N-(6-methoxy-2-methylpyrazolo[1,5-a]pyridin-5-yl)-5-((1S,5R)-3-methyl-3,6-diazabicyclo[3.2.0]heptan-6-yl)furo[3,2-b]pyridine-2-carboxamide] | 100 to 1000 nM
Cc1cn2cc(NC(=O)c3nc4ccc(N5C[C@@H]6CCN[C@@H]6C5)nc4s3)cc(F)c2n1 [Compound 110, N-(8-fluoro-2-methylimidazo[1,2-a]pyridin-6-yl)-5-((3aS,6aS)-hexahydropyrrolo[3,4-b]pyrrol-5(1H)-yl)thiazolo[5,4-b]pyridine-2-carboxamide] | < 100 nM
Cc1cn2cc(NC(=O)c3cc4ccc(N5CCC6C(CCCN6C)C5)nc4s3)ccc2n1 (stereo not drawn) [Compound 36, N-(2-methylimidazo[1,2-a]pyridin-6-yl)-6-(1-methyloctahydro-1,6-naphthyridin-6(2H)-yl)thieno[2,3-b]pyridine-2-carboxamide] | 100 to 1000 nM
Cc1cn2cc(NC(=O)c3cc4ccc(N5CCN(C)CC5)nc4s3)nc(C)c2n1 [Compound 3, N-(2,8-dimethylimidazo[1,2-a]pyrazin-6-yl)-6-(4-methylpiperazin-1-yl)thieno[2,3-b]pyridine-2-carboxamide] | 100 to 1000 nM
CN(C)C1CCN(c2ccc3cc(C(=O)Nc4ccc5nsnc5c4)sc3n2)C1 (stereo not drawn) [Compound 63, N-(benzo[c][1,2,5]thiadiazol-5-yl)-6-(3-(dimethylamino)pyrrolidin-1-yl)thieno[2,3-b]pyridine-2-carboxamide] | 1000 to 9000 nM
COc1cc2nn(C)cc2cc1NC(=O)c1cc2ncc(N3CCC4(CCN4C)C3)nc2s1 (single isomer, unassigned) [Compound 264] | < 100 nM
Cc1cn2cc(NC(=O)c3cc4ccc(N5CC6CCC5CN6C)nc4s3)ccc2n1 (stereo not drawn) [Compound 27, 6-(5-methyl-2,5-diazabicyclo[2.2.2]octan-2-yl)-N-(2-methylimidazo[1,2-a]pyridin-6-yl)thieno[2,3-b]pyridine-2-carboxamide] | 100 to 1000 nM
CCN1CCN(c2ccc3oc(C(=O)Nc4cc5cc(C)nn5cc4OC)cc3n2)CC1 [Compound 259, 5-(4-ethylpiperazin-1-yl)-N-(6-methoxy-2-methylpyrazolo[1,5-a]pyridin-5-yl)furo[3,2-b]pyridine-2-carboxamide] | 100 to 1000 nM
COc1cc2nn(C)cc2cc1NC(=O)c1nc2ccc(N3C[C@@H]4CN(C)C[C@@H]43)nc2s1 [Compound 90, N-(6-methoxy-2-methyl-2H-indazol-5-yl)-5-((1S,5R)-3-methyl-3,6-diazabicyclo[3.2.0]heptan-6-yl)thiazolo[5,4-b]pyridine-2-carboxamide] | < 100 nM
Cc1cn2cc(NC(=O)c3cc4ccc(N5C[C@@H](C)N(CC(F)(F)F)[C@@H](C)C5)nc4s3)ccc2n1 [Compound 33] | 100 to 1000 nM
Cc1cn2cc(NC(=O)c3nc4ccc(C5=CC(C)(C)NC(C)(C)C5)nc4s3)cc(F)c2n1 [Compound 132, N-(8-fluoro-2-methylimidazo[1,2-a]pyridin-6-yl)-5-(2,2,6,6-tetramethyl-1,2,3,6-tetrahydropyridin-4-yl)thiazolo[5,4-b]pyridine-2-carboxamide] | < 100 nM
CCN1CCN(c2ccc3nc(C(=O)Nc4cn5cc(C)nc5c(C)n4)sc3n2)CC1 [Compound 119, N-(2,8-dimethylimidazo[1,2-a]pyrazin-6-yl)-5-(4-ethylpiperazin-1-yl)thiazolo[5,4-b]pyridine-2-carboxamide] | 100 to 1000 nM

SMILES | IC50
COc1c(NC(=O)c2cc3ccc(N4CCC5(CCCN5C)C4)nc3s2)cn2cc(C)nc2c1F (single isomer, unassigned) [Compound 242] | < 100 nM
CN[C@@H]1CCN(c2ccc3cc(C(=O)Nc4cc(OC)c5nc(C)cn5c4)sc3n2)C1 [Compound 220, (R)-N-(8-methoxy-2-methylimidazo[1,2-a]pyridin-6-yl)-6-(3-(methylamino)pyrrolidin-1-yl)thieno[2,3-b]pyridine-2-carboxamide] | < 100 nM
COc1cc2nn(C)cc2cc1NC(=O)c1cc2ccc(N3C[C@@H]4CN(C)C[C@@H]43)nc2s1 [Compound 216, N-(6-methoxy-2-methyl-2H-indazol-5-yl)-6-((1S,5R)-3-methyl-3,6-diazabicyclo[3.2.0]heptan-6-yl)thieno[2,3-b]pyridine-2-carboxamide] | < 100 nM
COc1c(NC(=O)c2cc3ccc(N4CCC(N5CCC5)C4)nc3s2)cc2cn(C)nc2c1F (racemic) [Compound 180, rac-(R)-6-(3-(azetidin-1-yl)pyrrolidin-1-yl)-N-(7-fluoro-6-methoxy-2-methyl-2H-indazol-5-yl)thieno[2,3-b]pyridine-2-carboxamide] | < 100 nM
Cc1cn2cc(NC(=O)c3cc4ccc(N5C[C@H]6CN(C)C[C@H]6C5)nc4s3)ccc2n1 [Compound 21, 6-((3aR,6aS)-5-methylhexahydropyrrolo[3,4-c]pyrrol-2(1H)-yl)-N-(2-methylimidazo[1,2-a]pyridin-6-yl)thieno[2,3-b]pyridine-2-carboxamide] | 100 to 1000 nM
Cc1cn2cc(NC(=O)c3cc4ccc(N5CCC5CN(C)C)nc4s3)ccc2n1 (stereo not drawn) [Compound 48, 6-(2-((dimethylamino)methyl)azetidin-1-yl)-N-(2-methylimidazo[1,2-a]pyridin-6-yl)thieno[2,3-b]pyridine-2-carboxamide] | 1000 to 9000 nM
CCN1CCN(c2ccc3cc(C(=O)Nc4cn5cc(C)nc5c(C)n4)sc3n2)CC1 [Compound 240, N-(2,8-dimethylimidazo[1,2-a]pyrazin-6-yl)-6-(4-ethylpiperazin-1-yl)thieno[2,3-b]pyridine-2-carboxamide] | < 100 nM
COc1cc2nn(C)cc2cc1NC(=O)c1cc2nc(N3CCN(C)CC3)ccc2o1 [Compound 263, N-(6-methoxy-2-methyl-2H-indazol-5-yl)-5-(4-methylpiperazin-1-yl)furo[3,2-b]pyridine-2-carboxamide] | < 100 nM
Cc1cn2cc(NC(=O)c3cc4cnc(N5CC[C@@H](N(C)C)C5)nc4s3)cc(F)c2n1 [Compound 149, (R)-2-(3-(dimethylamino)pyrrolidin-1-yl)-N-(8-fluoro-2-methylimidazo[1,2-a]pyridin-6-yl)thieno[2,3-d]pyrimidine-6-carboxamide] | 100 to 1000 nM
Cc1cn2cc(NC(=O)c3cc4ccc(N5CCC(N6CCCC6)C5)nc4s3)ccc2n1 (stereo not drawn) [Compound 19, 6-([1,3′-bipyrrolidin]-1′-yl)-N-(2-methylimidazo[1,2-a]pyridin-6-yl)thieno[2,3-b]pyridine-2-carboxamide] | 100 to 1000 nM
CN(C)C1CCN(c2ccc3cc(C(=O)Nc4nc5cnccn5n4)sc3n2)C1 (stereo not drawn) [Compound 64, N-([1,2,4]triazolo[1,5-a]pyrazin-2-yl)-6-(3-(dimethylamino)pyrrolidin-1-yl)thieno[2,3-b]pyridine-2-carboxamide] | 1000 to 9000 nM
Cc1cn2cc(NC(=O)c3cc4ccc(N5CC[C@H](N(C)C)C5)nc4s3)nc(C)c2n1 [Compound 50, (S)-6-(3-(dimethylamino)pyrrolidin-1-yl)-N-(2,8-dimethylimidazo[1,2-a]pyrazin-6-yl)thieno[2,3-b]pyridine-2-carboxamide] | 100 to 1000 nM
Cc1cn2cc(NC(=O)c3cc4ccc(OC5C[C@@H](C)N[C@H](C)C5)nc4s3)cc(F)c2n1 (stereo partly drawn) [Compound 157] | 100 to 1000 nM
Cc1cn2cc(NC(=O)c3nc4ccc(N5CCC(N6CCC6)C5)nc4s3)cc(F)c2n1 (single isomer, unassigned) [Compound 101] | < 100 nM
Cc1cn2cc(NC(=O)c3cc4cnc(N5CC[C@H](N(C)C)C5)nc4s3)nc(C)c2n1 [Compound 151, (S)-2-(3-(dimethylamino)pyrrolidin-1-yl)-N-(2,8-dimethylimidazo[1,2-a]pyrazin-6-yl)thieno[2,3-d]pyrimidine-6-carboxamide] | 1000 to 9000 nM
Cc1cn2cc(NC(=O)c3cc4ccc(N5CCC6CNCC65)nc4s3)nc(C)c2n1 (racemic) [Compound 215, N-(2,8-dimethylimidazo[1,2-a]pyrazin-6-yl)-6-(hexahydropyrrolo[3,4-b]pyrrol-1(2H)-yl)thieno[2,3-b]pyridine-2-carboxamide] | < 100 nM
Cc1cn2cc(NC(=O)c3nc4ccc(N5CCC6(CCN6)C5)nc4s3)cc(F)c2n1 (single isomer, unassigned) [Compound 97] | < 100 nM
Cc1cn2cc(NC(=O)c3cc4ccc(N5C[C@@H](C)N(C)[C@@H](C)C5)nc4s3)ccc2n1 [Compound 18, N-(2-methylimidazo[1,2-a]pyridin-6-yl)-6-((3R,5S)-3,4,5-trimethylpiperazin-1-yl)thieno[2,3-b]pyridine-2-carboxamide] | < 100 nM
